The values below are quoted from earlier work in patent US7732395B2, “Water-stabilized antimicrobial organosilane products, compositions, and methods for using the same” (Vitec Specialty Chemicals Ltd., priority 2006, dated 2010).

For the data set the following is noted: prior art.

As to `CCCCCCCCCCCCCCCCCC[N+](C)(C)CCC[Si](OC)(OC)OC.[Cl-]` [3-(trimethoxysilyl)propyl-dimethyloctadecyl ammonium chloride], the “time after which the mixture with water begins to lose effectiveness” value was “four to eight”.
